Assay results taken from ChEMBL document CHEMBL4613212, “Insights of synthetic analogues of anti-leprosy agents” (Bioorg Med Chem, 2019).

What was measured:
Vero = assay: Cytotoxicity against African green monkey Vero cells incubated for 72 hrs by MTT assay; assay type: cell-based, Chlorocebus sabaeus
[1] = tested on: Mycobacterium tuberculosis; assay: Antitubercular activity against Mycobacterium tuberculosis H37Rv ATCC 27294 assessed as growth inhibition at 12.5 ug/ml by microplate alamar blue assay relative to control; assay type: functional
[2] = tested on: Mycobacterium tuberculosis; assay: Antitubercular activity against Mycobacterium tuberculosis H37Rv ATCC 27294 assessed as inhibition of [3H]-thymidine incorporation relative to control; assay type: functional
[3] = Selectivity index, ratio of IC50 for African green monkey Vero cells to MIC for antitubercular activity against Mycobacterium tuberculosis H37Rv; assay type: toxicity; details: vero
Mycobacterium leprae [4] = assay: Antimicrobial activity against Mycobacterium leprae assessed as microbial growth at 0.0469 ug/ml in presence of 0.025 ug/ml rifabutin measured at 4 weeks (reference value: 147 +/- 19.1%); assay type: functional
Mycobacterium leprae [5] = assay: Antimicrobial activity against Mycobacterium leprae assessed as microbial growth at 0.0938 ug/ml in presence of 0.1 ug/ml rifampin measured at 4 weeks (reference value: 147 +/- 19.1%); assay type: functional
Mycobacterium leprae [6] = assay: Antimicrobial activity against Mycobacterium leprae assessed as fractional inhibitory concentration index at 0.0469 ug/ml in presence of 0.05 ug/ml rifabutin measured at 4 weeks; assay type: functional
Mycobacterium leprae [7] = assay: Antimicrobial activity against Mycobacterium leprae assessed as microbial growth at 0.0469 ug/ml in presence of 0.0031 ug/ml KRM-1648 measured at 4 weeks (reference value: 147 +/- 19.1%); assay type: functional
Mycobacterium leprae [8] = assay: Antimicrobial activity against Mycobacterium leprae assessed as microbial growth at 0.0469 ug/ml in presence of 0.05 ug/ml rifabutin measured at 4 weeks (reference value: 147 +/- 19.1%); assay type: functional
Mycobacterium leprae [9] = assay: Antimicrobial activity against Mycobacterium leprae assessed as microbial growth at 0.0469 ug/ml in presence of 0.2 ug/ml rifampin measured at 4 weeks (reference value: 147 +/- 19.1%); assay type: functional
Mycobacterium leprae [10] = assay: Antimicrobial activity against Mycobacterium leprae assessed as microbial growth at 0.0469 ug/ml in presence of 0.0062 ug/ml KRM-1648 measured at 4 weeks (reference value: 147 +/- 19.1%); assay type: functional
Mycobacterium leprae [11] = assay: Antimicrobial activity against Mycobacterium leprae assessed as fractional inhibitory concentration index at 0.0469 ug/ml in presence of 0.0062 ug/ml KRM-1648 measured at 4 weeks; assay type: functional
Mycobacterium leprae [12] = assay: Antimicrobial activity against Mycobacterium leprae assessed as fractional inhibitory concentration index at 0.0938 ug/ml in presence of 0.2 ug/ml rifampin measured at 4 weeks; assay type: functional
Mycobacterium leprae [13] = assay: Antimicrobial activity against Mycobacterium leprae assessed as microbial growth at 0.0938 ug/ml in presence of 0.2 ug/ml rifampin measured at 4 weeks (reference value: 147 +/- 19.1%); assay type: functional

Row | Compound | IC50 (Vero) | inhibition at 12.5 µg/mL [1] [%] | inhibition (INH) [2] [%] | Selectivity Index [3] | Activity (Mycobacterium leprae [4]) [%] | Activity (Mycobacterium leprae [5]) [%] | fractional inhibitory concentration index (FICI) (Mycobacterium leprae [6]) | Activity (Mycobacterium leprae [7]) [%] | Activity (Mycobacterium leprae [8]) [%] | Activity (Mycobacterium leprae [9]) [%] | Activity (Mycobacterium leprae [10]) [%] | fractional inhibitory concentration index (FICI) (Mycobacterium leprae [11]) | fractional inhibitory concentration index (FICI) (Mycobacterium leprae [12]) | Activity (Mycobacterium leprae [13]) [%]
1 | Clc1nc(-c2ccccc2)c2ncn(Cc3ccccc3)c2n1 | Nd(Insoluble) | > 90 | 76 | Nd(Insoluble) | – | – | – | – | – | – | – | – | – | –
2 | N[C@@H]1CN(c2c(F)cc3c(=O)c(C(=O)O)cn([C@@H]4C[C@@H]4F)c3c2Cl)CC12CC2 [SITAFLOXACIN ANHYDROUS] | – | – | – | – | 141 | 124 | 0.5 | 89 | 0 | 138 | 0 | 0.375 | 1 | 0
